Measured values reported in patent US20110129883A1, “INACTIVATION OF GENES OF THE MEP PATHWAY” (BIOAGENCY AG, priority 2001, published 2011).

Tested on: E. coli transformed with the synthetic operon
Assay type: cell-based

## O=CN(O)CCCP(=O)(O)O [fosmidomycin]
  bacterial growth under fosmidomycin: at a reduced rate and died
